Laboratory results reported in patent US10258602B2 (Ocera Therapeutics, Inc., priority 2007, dated 2019).
Where two headings read alike, the source gives them in different places.

Experiments:
[1] = molecular target: T1, CYP2D6 (Homo sapiens, UniProt P10635); assay: Cytochrome P450 inhibition, CYP2D6; format: in vitro ADME; details: read-out: IC50 2D6
T1 construct: purchased BD Gentest, Becton-Dickinson (Supersomes); host or cells: insect cells
From the text: (§1) K. Assay for Cytochrome P450 Inhibition
(§2) Cytochrome P450 enzymes are implicated in the phase I metabolism of drugs. The majority of drug-drug interactions are metabolism-based and, moreover, these interactions typically involve inhibition of cytochrome P450s. Six CYP450 enzymes (CYP1A2, CYP2C8, CYP2C9, CYP2C19, CYP2D6 and CYP3A4) appear to be commonly responsible for the metabolism of most drugs and the associated drug-drug interactions. Assays to determine the binding of compounds of the invention to the various metabolically important isoforms of cytochrome P450 metabolizing enzymes are commercially available, for example NoAb BioDiscoveries (Mississaugua, ON, Canada) and Absorption Systems (Exton, Pa., USA). As well, a number of appropriate methods have been described or reviewed in the literature. (White, R. E. Ann. Rev. Pharmacol. Toxicol. 2000, 40, 133-157; Li, A. P. Drug. Disc. Today 2001, 6, 357-366; Turpeinen, M.; Korhonen, L. E. Tolonen, A.; et al. Eur. J. Pharm. Sci, 2006, 29, 130-138.)
(§3) The key aspects of the experimental method were as follows: • 1. […] Assays monitored, via fluorescence detection, the formation of a fluorescent metabolite following incubation of the microsomes with a specific CYP substrate. • 3. Compounds of the present invention were tested in duplicate samples at eight test concentrations using 3-fold serial dilutions (concentration range of 0.0457 to 100 μM). • 4. For each CYP-450 enzyme, a specific inhibitor was tested in duplicate at eight concentrations as a positive control. • 5. The concentration of the inhibitor or test compound that inhibited metabolite formation by 50% (IC50) was calculated by non-linear regression analysis of the % inhibition vs. log concentration (M) curve.

[2] = molecular target: human growth hormone secretagogue receptor (hGHS-R1a) (Homo sapiens, UniProt Q92847); assay: Competitive radioligand binding assay (ghrelin receptor), standard method A
[3] = Pharmacokinetic analysis (oral bioavailability, elimination half-life) in the rat; format: in vivo; details: oral administration, HPLC-MS
Outline: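 Rat, oral dosing at 8 mg/kg (one compound at 2 mg/kg). Plasma levels by HPLC-MS, giving oral bioavailability and elimination half-life.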

[4] = molecular target: T2, CYP2E1 (Homo sapiens, UniProt P05181); assay: Cytochrome P450 inhibition, CYP2E1; format: in vitro ADME; details: read-out: IC50 2E1
T2 construct: purchased BD Gentest, Becton-Dickinson (Supersomes); host or cells: insect cells
From the text: as §1, §2, §3

[5] = molecular target: T3, CYP2B6 (Homo sapiens, UniProt P20813); assay: Cytochrome P450 inhibition, CYP2B6; format: in vitro ADME; details: read-out: IC50 2B6
T3 construct: purchased BD Gentest, Becton-Dickinson (Supersomes); host or cells: insect cells
T3 sequence (P20813 1-491): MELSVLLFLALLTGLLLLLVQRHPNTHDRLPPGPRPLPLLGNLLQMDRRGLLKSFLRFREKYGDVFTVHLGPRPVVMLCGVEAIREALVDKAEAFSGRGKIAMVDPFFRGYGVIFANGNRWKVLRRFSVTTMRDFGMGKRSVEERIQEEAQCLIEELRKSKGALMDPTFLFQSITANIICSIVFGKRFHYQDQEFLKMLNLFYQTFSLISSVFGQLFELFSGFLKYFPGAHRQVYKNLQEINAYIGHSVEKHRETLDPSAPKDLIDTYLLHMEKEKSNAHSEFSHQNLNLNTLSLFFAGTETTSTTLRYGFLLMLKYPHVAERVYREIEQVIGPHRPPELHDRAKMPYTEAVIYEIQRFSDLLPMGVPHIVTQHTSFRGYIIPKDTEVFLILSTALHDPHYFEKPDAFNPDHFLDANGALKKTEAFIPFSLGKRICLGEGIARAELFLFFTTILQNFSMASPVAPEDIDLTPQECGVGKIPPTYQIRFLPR
From the text: as §1, §2, §3

[6] = test system: human plasma; assay: Plasma protein binding, human plasma (equilibrium dialysis); format: in vitro ADME
Outline: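 Human plasma incubated with test article at several concentrations for 60 min at 37° C. Bound and unbound fractions separated by equilibrium dialysis; unbound concentration quantified by LC-MS or LC-MS-MS.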

[7] = binding activity at the human ghrelin receptor, standard method A

Sequence of human growth hormone secretagogue receptor (hGHS-R1a) (Q92847 whole entry): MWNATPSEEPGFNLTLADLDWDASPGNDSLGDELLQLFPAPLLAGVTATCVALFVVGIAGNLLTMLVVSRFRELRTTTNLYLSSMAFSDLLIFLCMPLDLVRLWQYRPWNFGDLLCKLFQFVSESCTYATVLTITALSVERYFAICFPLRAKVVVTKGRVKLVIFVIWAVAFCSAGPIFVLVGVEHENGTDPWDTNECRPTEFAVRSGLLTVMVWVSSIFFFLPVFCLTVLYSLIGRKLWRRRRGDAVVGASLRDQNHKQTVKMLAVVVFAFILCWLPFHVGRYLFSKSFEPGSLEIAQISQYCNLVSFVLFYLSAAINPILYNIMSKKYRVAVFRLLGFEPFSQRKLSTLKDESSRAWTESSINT
T1 sequence (P10635 whole entry): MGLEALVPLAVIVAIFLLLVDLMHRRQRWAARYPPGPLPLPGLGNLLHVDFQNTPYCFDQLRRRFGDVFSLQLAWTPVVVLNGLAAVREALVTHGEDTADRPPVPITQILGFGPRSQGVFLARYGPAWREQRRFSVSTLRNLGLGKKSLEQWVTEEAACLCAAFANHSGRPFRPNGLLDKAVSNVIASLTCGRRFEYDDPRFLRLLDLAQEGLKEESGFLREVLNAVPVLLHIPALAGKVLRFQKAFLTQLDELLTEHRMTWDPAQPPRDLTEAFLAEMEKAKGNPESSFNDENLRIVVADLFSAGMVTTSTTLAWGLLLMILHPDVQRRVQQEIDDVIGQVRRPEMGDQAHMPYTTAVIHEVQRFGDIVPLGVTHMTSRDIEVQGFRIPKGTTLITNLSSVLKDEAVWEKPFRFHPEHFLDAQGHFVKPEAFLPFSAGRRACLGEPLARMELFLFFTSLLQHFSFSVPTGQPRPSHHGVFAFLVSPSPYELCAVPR
T2 sequence (P05181 whole entry): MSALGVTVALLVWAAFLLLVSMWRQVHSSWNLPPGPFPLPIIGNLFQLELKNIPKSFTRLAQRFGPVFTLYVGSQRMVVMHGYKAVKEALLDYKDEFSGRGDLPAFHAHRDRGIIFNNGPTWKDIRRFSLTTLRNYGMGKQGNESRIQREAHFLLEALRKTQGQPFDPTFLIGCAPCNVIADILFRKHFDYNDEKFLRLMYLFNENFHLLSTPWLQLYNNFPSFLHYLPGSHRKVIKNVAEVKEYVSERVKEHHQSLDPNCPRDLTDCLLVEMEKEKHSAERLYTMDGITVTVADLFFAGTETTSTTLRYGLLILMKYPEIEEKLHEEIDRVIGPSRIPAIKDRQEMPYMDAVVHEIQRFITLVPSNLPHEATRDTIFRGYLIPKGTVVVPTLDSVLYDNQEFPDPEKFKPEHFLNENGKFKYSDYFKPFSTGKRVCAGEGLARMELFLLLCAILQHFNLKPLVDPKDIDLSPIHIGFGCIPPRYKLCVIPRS

Row | SMILES | IC50 [1] [µM] | Ki [2] [µM] | Oral Bioavailability (rat, % F) ([3]; 8 mg/kg dose) [% F] | half-life ([3]; plasma, 8 mg/kg dose, read-out: Elimination Half-life (t1/2, rat, min)) [min] | IC50 [4] [µM] | IC50 [5] [µM] | Human Plasma Protein Binding (%) ([6]; test concentration 3 μg/mL) | Ki [2, 7] [µM] | Elimination Half-life (t1/2, rat, min) ([3]; 2 mg/kg dose (compound 822)) [min] | Oral Bioavailability (rat, % F) ([3]; 2 mg/kg dose (compound 822)) [% F] | Elimination Half-life (t1/2, rat, min) ([3]; 8 mg/kg dose) [min] | Human Plasma Protein Binding (%) ([6]; test concentration 1 μg/mL) | Human Plasma Protein Binding (%) ([6]; test concentration 5 μg/mL)
1 | CC(C)C[C@H]1NC(=O)[C@@H](C)N(C)C(=O)[C@H](C2CC2)NC[C@@H](C)Oc2ccccc2CC[C@H](C)NC1=O [Compound 807] | > 100 | ≤ 0.01 | 23 | 197 | > 100 | > 100 | – | – | – | – | – | – | –
2 | CC(C)C[C@H]1NC(=O)[C@@H](C)N(C)C(=O)[C@H](C2CC2)NCCOc2cc(F)ccc2CC[C@H](C)NC1=O [Compound 822] | > 100 | – | – | – | > 100 | > 100 | 93.0 | ≤ 0.1 | 65 | 51 | – | – | –
3 | CC(C)CC1NC(=O)C(C)N(C)C(=O)C(C2CCCCC2)NCC(C)OC2CCCCC2CCCNC1=O (mixture of isomers) [Compound 828] | > 100 | – | – | – | > 100 | > 100 | 76.8 | ≤ 0.001 | – | – | – | – | –
4 | C[C@@H]1C(=O)N[C@H](Cc2ccc(O)cc2)C(=O)NCCCc2ccc(F)cc2OCCN[C@@H](C2CC2)C(=O)N1C [Compound 809] | > 100 | – | – | – | > 100 | > 100 | 88.4 | ≤ 0.1 | – | – | – | – | –
5 | CC1CNC(C2CC2)C(=O)N(C)C(C)C(=O)NC(Cc2ccc(O)cc2)C(=O)NCCCC2CCCCC2O1 (mixture of isomers) [Compound 826] | > 100 | – | 29 | – | > 100 | > 100 | 94.3 | ≤ 0.1 | – | – | 77 | – | –
6 | CC(C)C[C@H]1NC(=O)[C@@H](C)N(C)C(=O)[C@H](C2CC2)NCCOc2cc(F)ccc2CCCNC1=O [Compound 810] | > 100 | – | 15 | – | > 100 | 102 | 78.9 | ≤ 0.1 | – | – | 116 | – | –
7 | C[C@@H]1C(=O)N[C@H](Cc2ccc(O)cc2)C(=O)NCCCc2cccc3c2O[C@H](CC3)CN[C@@H](C2CC2)C(=O)N1C [Compound 803] | > 100 | – | 9 | – | > 100 | 53.6 | – | ≤ 0.1 | – | – | 151 | 97.8 | –
8 | CC(C)CC1NC(=O)C(C)N(C)C(=O)C(C2CC2)NCC(C)OC2CCCCC2CCCNC1=O (mixture of isomers) [Compound 825] | > 100 | – | 37 | – | > 100 | > 100 | – | ≤ 0.01 | – | – | 101 | 83 | 70
9 | CC1NC(C2CC2)C(=O)N(C)C(C)C(=O)NC(Cc2ccc(O)cc2)C(=O)NCCCc2ccccc2OC1C (centres unmarked) [Compound 820] | > 100 | – | 18 | – | > 100 | > 100 | 99.0 | ≤ 0.1 | – | – | 137 | – | –
